Patent US20040234517A1, “Compositions and methods for diagnosing and treating asthma or other allergic or inflammatory diseases” (WYETH, priority 2003, published 2004)
Entries after “also recorded” stand apart in the source; their conditions may differ. Like-named read-outs stand apart in the source and are kept apart here.

Tests used:
arginase [1] = molecular target: T1, arginase (Homo sapiens, UniProt P05089); settings: cited from earlier work; for Ki: competitive inhibitors of arginase
T1 sequence (P05089 1-322): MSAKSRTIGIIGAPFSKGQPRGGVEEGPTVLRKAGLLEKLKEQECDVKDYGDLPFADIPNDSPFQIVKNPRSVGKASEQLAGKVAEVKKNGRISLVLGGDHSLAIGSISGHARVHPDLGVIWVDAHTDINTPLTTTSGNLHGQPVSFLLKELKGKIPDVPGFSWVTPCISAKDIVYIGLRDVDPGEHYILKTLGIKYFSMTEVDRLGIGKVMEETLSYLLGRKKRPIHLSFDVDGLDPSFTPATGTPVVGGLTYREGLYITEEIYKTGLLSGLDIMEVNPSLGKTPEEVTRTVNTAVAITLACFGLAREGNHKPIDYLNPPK

liver arginase = molecular target: T2, liver arginase (Bos taurus, UniProt Q2KJ64); settings: cited from earlier work; for activity toward arginase: concentrations up to 2 mM
T2 sequence (Q2KJ64 1-322): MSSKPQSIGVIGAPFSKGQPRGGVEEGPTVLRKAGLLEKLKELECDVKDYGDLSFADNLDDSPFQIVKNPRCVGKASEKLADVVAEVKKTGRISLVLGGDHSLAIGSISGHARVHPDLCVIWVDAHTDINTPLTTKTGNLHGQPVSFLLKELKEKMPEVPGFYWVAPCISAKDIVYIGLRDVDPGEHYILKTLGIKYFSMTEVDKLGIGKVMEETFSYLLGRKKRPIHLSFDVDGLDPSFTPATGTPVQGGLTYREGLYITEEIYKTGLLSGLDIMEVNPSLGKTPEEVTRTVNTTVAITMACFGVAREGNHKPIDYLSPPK

arginase [2] = settings: cited from earlier work
rat liver arginase (RLA) = rat liver arginase (RLA) (Rattus norvegicus, UniProt P07824); settings: cited from earlier work; for IC50: read-out: IC50 towards RLA
CAT2 = assay: arginine uptake in RAW264.7 cells treated with LPS and IL-13; format: cell-based, murine; settings: 20 mM lysine; Control and LPS/IL-13 treated RAW264.7 cells; 100 μM arginine, three minutes
Procedure: Briefly, RAW264.7 cells were exposed to media alone (Control) or CAT2-inducing conditions (LPS/IL-13) for 24 hours and were then evaluated for arginine transport over a three-minute period in a final arginine concentration of 100 μM.
RAW264.7 cells, at 1×10^6, were plated on 24-well tissue culture plates in 0.5 ml cDME. After adhering for 2 hours, 0.5 ml media containing LPS (Sigma) and/or rhIL13 (R&D Systems) was added for final concentrations of 1 μg/ml and 10 ng/ml, respectively. After 20 hours incubation at 37° C. in an atmosphere of 5% CO2 and 95% air, the cells were washed 3 times with Arg Wash Buffer #1 (140 mM choline chloride, 5 mM KCl, 0.9 mM CaCl2, 1 mM MgSO4, 5.6 mM glucose, and 25 mM HEPES, pH7.4), then an additional 4 times with Arg Transport Buffer (137 mM choline chloride, 5.4 mM KCl, 1.8 mM CaCl2, 1.2 mM MgSO4, 10 mM HEPES, adjusted to pH7.4). […] Non-saturable binding was quantitated by incubating a replicate well of each treatment with transport buffer containing […]. […] Protein quantitation was performed using a micro-BCA kit (Pierce) and 400 μl lysate suspended in 10 ml scintillation fluid, loaded into glass scintillation vials, and emissions counted for 1 minute. Specific Arginine Uptake was calculated as Saturable binding (CPM/mg protein 400 μM Arg)— Non-saturable binding (CPM/mg protein 5 mM Arg).

rat tracheal explants = assay: carbachol-induced tracheal contraction; settings: 100 mM lysine; preincubated 15 to 20 hours
Procedure: Briefly, rat tracheal explants were preincubated for 15 to 20 hours with either media or media containing 100 mM L-lysine. The trachea were then washed and contraction measured in a Krebs-Henseleit solution in the presence or absence of 100 mM L-lysine.
Rats between 8-10 weeks of age were used for this experiment. Trachea were rapidly excised and cleaned of adherent connective tissue. […] Composition (mM) of the medium included 0.1 nonessential amino acids, 4% FBS, 2.0 glutamine, 0.05β-mercaptoethanol, 100 U/ml penicillin/100 μg/ml streptomycin.
Trachea were supported longitudinally by a rod with a stainless steel pin into the base of a double-jacketed, glass organ bath filled with 15 ml of Krebs-Henseleit (K-H) solution (37° C.) of the following composition (mM): 118 NaCl; 4.7 KCl; 1.2 KH2PO4; 11.1 Dextrose; 1.2 MgSO4; 2.8 CaCl2; and 25 NaHCO3. The solution was continuously gassed with a 5% CO2 and 95% O2 mixture for the duration of each experiment. The upper support was attached by a loop of silk thread to a TSD125 force transducer. […]
At the end of each experiment, all trachea were blotted on a gauze pad and weighted. Tensions were calculated as milligram tensions per milligram weight (mg/mg) and expressed as an individual percentage (%) of 10^−5 M carbachol-evoked force of the trachea in the absence of the drugs. All values were expressed as Mean ± SE. […]

[3] = test system: RAW264.7 murine macrophage cells; assay: urea production in RAW264.7 cells treated with LPS and IL-13; format: cell-based; settings: 20 mM lysine; LPS/IL-13 treated RAW264.7; 400 μM arginine, 24 hour incubation
Procedure: Briefly, RAW264.7 macrophages exposed to media alone (Control) or CAT2-inducing conditions (LPS/IL-13) for 24 hours were then equilibrated for 2 hours in Arginine Transport Buffer. After a 24 hour incubation in the presence or absence of competing L-lysine in Arginine Transport Buffer containing a final arginine concentration of 400 μM, urea production was evaluated as described in Example 4. Urea production is expressed as μg of urea in the supernatant/mg of cell lysate protein.
RAW264.7 macrophages were stimulated in 24-well plates as for arginine transport studies (above). After 20 hours of stimulation, the cells were washed three times with Arg Wash Buffer #1 and then an additional four times with Arg Transport Buffer. […] Supernatants were clarified by centrifugation at 12,000 rpm for 10 minutes and 100 μl assayed for urea in triplicate using a UV absorbance kit method (R-Biopharma) following the manufacturer's instructions with the exception that it was performed at 1/10 scale in a 96-well assay plate with a total volume of 300 μl/well. Cells were lysed with 500 μl of 1.0% SDS in 10 mM HEPES, pH 7.4 and the protein quantitated using the Micro-BCA kit (Pierce). Urea production was expressed as μg urea/mg protein lysate.

arginase [4] = settings: cited from earlier work; remark: listed apart in the source
[5] = molecular target: IL-13 (murine, endogenous in OVA-challenged Balb/c mice) (mouse) (UniProt P20109); assay: cell-based or functional assay
Chain of IL-13 (murine, endogenous in OVA-challenged Balb/c mice) (mouse) (P20109 19-131 limits assumed): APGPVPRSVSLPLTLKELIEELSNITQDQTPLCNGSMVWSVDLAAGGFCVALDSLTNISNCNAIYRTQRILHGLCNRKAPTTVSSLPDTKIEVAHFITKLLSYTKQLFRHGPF

Chain of rat liver arginase (RLA) (P07824 whole entry): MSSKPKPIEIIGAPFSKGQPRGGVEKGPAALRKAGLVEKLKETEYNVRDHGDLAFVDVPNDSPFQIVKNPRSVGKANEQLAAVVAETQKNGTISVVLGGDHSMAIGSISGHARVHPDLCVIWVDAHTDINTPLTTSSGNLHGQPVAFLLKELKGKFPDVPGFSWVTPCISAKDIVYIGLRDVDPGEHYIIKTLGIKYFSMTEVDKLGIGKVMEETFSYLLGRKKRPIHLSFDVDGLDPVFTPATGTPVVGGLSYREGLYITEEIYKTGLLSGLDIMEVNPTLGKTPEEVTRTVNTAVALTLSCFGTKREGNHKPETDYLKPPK

Compound: O=C(O)CN(CCN(CC(=O)O)CC(=O)O)CC(=O)O [EDTA]
- inhibition of arginase activity (arginase [1]): do not inhibit

Compound: NC(=O)NCCC[C@H](N)C(=O)O [L-Cit]
- effect on arginase relative to L-NOHA (liver arginase): much weaker inhibitors
- activity toward arginase (liver arginase): inactive

Compound: NC(CCCCC(N)C(=O)O)=NO (racemic) [N omega-hydroxy-D,L-indospicine]
- inhibition of liver arginase and arginase in the alveolar macrophages (arginase [2]): inhibit

Compound: N=C(NO)c1ccc(CC(N)C(=O)O)cc1 (racemic) [4-hydroxyamidino-D,L-phenylalanine]
- inhibition of liver arginase and arginase in the alveolar macrophages (arginase [2]): inhibit

Compound: N=C(NO)NCCC[C@@H](N)C(=O)O [D-NOHA]
- effect on arginase relative to L-NOHA (liver arginase): much less active

Compound: F [F^−, fluoride]
- Ki (rat liver arginase (RLA); pH 7.4, uncompetitive towards L-Arg binding, reversible): 1300 µM
- IC50 (rat liver arginase (RLA); pH 7): 1200 µM
- IC50 (rat liver arginase (RLA); pH 10): 19000 µM

Compound: [N]=O [NO, nitric oxide]
- effect on arginase relative to L-NOHA (liver arginase): much weaker inhibitors

Compound: NO [hydroxylamine]
- activity toward arginase (liver arginase): inactive

Compound: NCCCC[C@H](N)C(=O)O [lysine]
- arginine uptake / saturable arginine transport (CAT2): inhibited; also recorded: abolished all saturable arginine transport
- carbachol-induced rat tracheal contraction (rat tracheal explants): inhibited
- urea production [3]: inhibited

Compound: O=C(O)CC(O)(CC(=O)O)C(=O)O [citrate]
- inhibition of arginase activity (arginase [1]): do not inhibit

Compound: NC(=O)NO [hydroxyurea]
- activity toward arginase (liver arginase): inactive

Compound: NCCC[C@H](N)C(=O)O [L-omithine, L-ornithine]
- Ki (arginase [1]): 2000 µM

Compound: O=NO [NO2^−]
- effect on arginase relative to L-NOHA (liver arginase): without effect

Compound: N=C(NO)NCCC[C@H](N)C(=O)O [L-NOHA, N(omega)-Hydroxy-L-arginine]
- Ki (liver arginase; arginase): 150 µM
- IC50 (arginase [4]; murine macrophages (Buga et al.), read-out: IC50 arginase activity): 450 µM
- IC50 (arginase [4]; read-out: IC50 hydrolysis of L-arginine to L-ornithine, unstimulated murine macrophages (Tenu et al.)): 400 µM

Compound: NC(N)=O [urea]
- activity toward arginase (liver arginase): inactive

Compound: N=C(N)N [guanidinium chloride]
- Ki (arginase [1]): 100000 µM

Compound: soluble IL-13 receptor fusion protein sIL-13Rα2-Fc (from UniProt O88786 22-334) (Fc fusion)
- inhibition of allergen-induced Arg1 mRNA expression in mouse lung (GeneChip, in vivo) [5]: 67%

Compound: OB(O)O [borate]
- inhibition of arginase activity (arginase [1]): S-hyperbolic I-hyperbolic non-competitive inhibitor

Compound: O=[N+]([O-])O [NO3^−]
- effect on arginase relative to L-NOHA (liver arginase): without effect
